Experimental data published in patent publication US20130005760A1, “HETEROCYCLIC COMPOUND HAVING AZOLE GROUP” (Toyama Chemical Co., Ltd., priority 2010, published 2013).
pIC50: −log10 of the molar value.

test system: HIV-1 (JRCSF); experiment: Anti-HIV activity (Test Example 1-1): MaRBLE cells infected with HIV-1 (JRCSF), compound added 2 h after seeding, luciferase readout after 7 days; type: cell-based; conditions: Human immunodeficiency virus 1, 168 h, 7 days culture, firefly luciferase, virus growth rate, 4 parameter Logistic Model (XLfit 4)
Protocol: (§1) This example was carried out by reference to Journal of Clinical Microbiology, 2007, Vol. 45, pages 477 to 487.
(§2) An anti-HIV activity was evaluated using MaRBLE cells obtained by transfection of HPB-M(a) derived from human T-lymphocytes with a luciferase gene of which expressions were regulated by HIV-1 LTR and a CCR5 gene etc.
The MaRBLE cells were suspended in RPMI1640 containing 10% FCS (fetal calf serum) and penicillin/streptomycin. After infected with HIV-1 (JRCSF), the cells were seeded on a 96-well plate (1×10^5 cells/well). As a control group, the same number of uninfected cells were seeded.
After incubating the plate under the condition of 37° C. and 5% CO2 for 2 hours, a fresh culture medium or a culture medium containing an appropriately diluted test compound was added to each well.
After further culturing at 37° C. under 5% CO2 for 7 days, an intracellular luciferase activity was measured using Dual-Glo Luciferase assay system (Promega).
(§3) The virus growth rate was calculated by the following equation.
(§4) Virus growth rate (%)=(A/B)×100
(§5) A=(Firefly luciferase activity in the well with the compound)−(Firefly luciferase activity of uninfected cells)
(§6) B=(Firefly luciferase activity in the well without the compound)−(Firefly luciferase activity of uninfected cells)
The IC50 of the compound was calculated by applying virus growth rates of various concentrations to 4 parameter Logistic Model of curve-fitting software XLfit 4.

`Cc1noc(C)c1-c1ccc2c(=O)cc(C)n(Cc3ccccc3N)c2c1` [Example 5-2, 1-(2-aminobenzyl)-7-(3,5-dimethylisoxazol-4-yl)-2-methyl-1,4-dihydro-4-oxoquinoline.½ pinacol adduct] and `Cc1noc(C)c1-c1ccc2c(=O)cc(CO)n(Cc3ccccc3N)c2c1` [Example 7, 1-(2-aminobenzyl)-7-(3,5-dimethylisoxazol-4-yl)-2-hydroxymethyl-1,4-dihydro-4-oxoquinoline] are within 0.2 log units of each other in pIC50: 9.57 for the first, 9.70 for the second.

First: Cc1noc(C)c1-c1ccc2c(=O)cc(N)n(-c3ccc(F)cc3F)c2c1 [Example 10, 2-amino-1-(2,4-difluorophenyl)-7-(3,5-dimethylisoxazol-4-yl)-1,4-dihydro-4-oxoquinoline]
Second: Cc1noc(C)c1-c1ccc2c(=O)cc(CO)n(-c3ccc(F)cc3F)c2c1 [Example 22, 1-(2,4-difluorophenyl)-7-(3,5-dimethylisoxazol-4-yl)-2-hydroxymethyl-1,4-dihydro-4-oxoquinoline]
The pIC50 of the first is 0.67 log units lower: 8.55 for the first, 9.22 for the second.

Compared with `Cc1noc(C)c1-c1ccc2c(=O)cc(C)n(Cc3cccc(F)c3N)c2c1` [Example 11, 1-(2-amino-3-fluorobenzyl)-7-(3,5-dimethylisoxazol-4-yl)-2-methyl-1,4-dihydro-4-oxoquinoline], `CCc1cc(=O)c2ccc(-c3c(C)noc3C)cc2n1Cc1cccc(F)c1N` [Example 17, 1-(2-amino-3-fluorobenzyl)-7-(3,5-dimethylisoxazol-4-yl)-2-ethyl-1,4-dihydro-4-oxoquinoline] is 0.38 log units higher in pIC50: 9.21 for the first, 9.59 for the second. The second is the more potent here.

First: CCc1cc(=O)c2ccc(-c3c(C)noc3C)cc2n1-c1cc(N)c(F)cc1F [Example 16, 1-(5-amino-2,4-difluorophenyl)-7-(3,5-dimethylisoxazol-4-yl)-2-ethyl-1,4-dihydro-4-oxoquinoline]
Second: Cc1noc(C)c1-c1ccc2c(=O)cc(CO)n(-c3cc(N)c(F)cc3F)c2c1 [Example 19, 1-(5-amino-2,4-difluorophenyl)-7-(3,5-dimethylisoxazol-4-yl)-2-(hydroxymethyl)-1,4-dihydro-4-oxoquinoline]
The pIC50 of the first is 0.63 log units lower: 8.14 for the first, 8.77 for the second. The second is the more potent here.

Compared with `Cc1noc(C)c1-c1ccc2c(=O)cc(C)n(Cc3cccnc3N)c2c1` [Example 18, 1-((2-aminopyridin-3-yl)methyl)-7-(3,5-dimethylisoxazol-4-yl)-2-methyl-1,4-dihydro-4-oxoquinoline], `Cc1noc(C)c1-c1ccc2c(=O)cc(C)n(Cc3ccccc3N)c2n1` [Example 29, 1-(2-aminobenzyl)-7-(3,5-dimethylisoxazol-4-yl)-2-methyl-1,4-dihydro-4-oxo-1,8-naphthyridine] is 0.46 log units higher in pIC50: 8.46 for the first, 8.92 for the second. The second is the more potent here.

`Cc1noc(C)c1-c1ccc2c(=O)cc(N)n(-c3cc(N)c(F)cc3F)c2c1` [Example 20, 2-amino-1-(5-amino-2,4-difluorophenyl)-7-(3,5-dimethylisoxazol-4-yl)-1,4-dihydro-4-oxoquinoline] and `Cc1noc(C)c1-c1ccc2c(=O)cc(C)n(-c3cc(N)c(S(C)(=O)=O)cc3F)c2c1` [Example 31, 1-(5-amino-2-fluoro-4-(methylsulfonyl)phenyl)-7-(3,5-dimethylisoxazol-4-yl)-2-methyl-1,4-dihydro-4-oxoquinoline] are within 0.2 log units of each other in pIC50: 8.59 for the first, 8.74 for the second.

First: Cc1noc(C)c1-c1ccc2c(=O)cc(CO)n(-c3cc(N)c(F)cc3F)c2n1 [Example 24, 1-(5-amino-2,4-difluorophenyl)-7-(3,5-dimethylisoxazol-4-yl)-2-hydroxymethyl-1,4-dihydro-4-oxo-1,8-naphthyridine]
Second: Cc1noc(C)c1-c1ccc2c(=O)cc(CO)n(-c3ccc(F)cc3F)c2n1 [Example 26, 1-(2,4-difluorophenyl)-7-(3,5-dimethylisoxazol-4-yl)-2-hydroxymethyl-1,4-dihydro-4-oxo-1,8-naphthyridine]
The pIC50 of the first is 0.37 log units lower: 9.27 for the first, 9.64 for the second. The second is the more potent here.

Going from `Cc1noc(C)c1-c1ccc2c(=O)cc(C)n(-c3ccc(F)cc3F)c2n1` [Example 25, 1-(2,4-difluorophenyl)-7-(3,5-dimethylisoxazol-4-yl)-2-methyl-1,4-dihydro-4-oxo-1,8-naphthyridine] to `Cc1noc(C)c1-c1ccc2c(=O)cc(N)n(-c3ccc(F)cc3F)c2n1` [Example 28, 2-amino-1-(2,4-difluorophenyl)-7-(3,5-dimethylisoxazol-4-yl)-1,4-dihydro-4-oxo-1,8-naphthyridine], the pIC50 rises from 9.19 to 9.52 (0.33 log units). The second is the more potent here.

First: Cc1noc(C)c1-c1ccc2c(=O)cc(CN)n(-c3ccc(F)cc3F)c2n1 [Example 27, 2-(aminomethyl)-1-(2,4-difluorophenyl)-7-(3,5-dimethylisoxazol-4-yl)-1,4-dihydro-4-oxo-1,8-naphthyridine]
Second: Cc1noc(C)c1-c1ccc2c(=O)cc(C)n(-c3cc(N)c(Cl)cc3F)c2n1 [Example 34, 1-(5-amino-4-chloro-2-fluorophenyl)-7-(3,5-dimethylisoxazol-4-yl)-2-methyl-1,4-dihydro-4-oxo-1,8-naphthyridine]
The pIC50 of the first is 0.20 log units higher: 9.52 for the first, 9.32 for the second. The first is the more potent here.

test system: HIV-1 (JRCSF); experiment: Anti-HIV activity (Test Example 1-2): infected MaRBLE cells seeded on plate containing drug solution, luciferase readout after 7 days; type: cell-based; conditions: Human immunodeficiency virus 1, 168 h, MaRBLE cells infected with HIV-1 (JRCSF), 7 days culture, firefly luciferase, FORECAST linear regression (Excel)
Protocol: as §1, §2
A plate containing a drug solution was made by dispensing a fresh culture medium or an appropriately diluted test compound to a 96-well plate.
MaRBLE cells were suspended in RPMI1640 containing 10% FCS (fetal calf serum) and penicillin/streptomycin. After infected with HIV-1 (JRCSF), the cells were seeded on the above-described plate containing a drug solution ([…] cells/well). As a control group, the same number of uninfected cells were seeded.
After culturing at 37° C. under 5% CO2 for 7 days, an intracellular luciferase activity was measured using Dual-Glo Luciferase assay system (Promega).
as §3, §4, §5, §6
The IC50 of the compound was calculated by plotting the concentration with the logarithm and by plotting the virus growth rate with a real number, using the FORECAST function (linear regression technique) of Microsoft Office Excel 2003.

Compared with `Cc1noc(C)c1-c1cc2c(cc1F)c(=O)cc(C)n2Cc1ccccc1N` [Example 13, 1-(2-aminobenzyl)-7-(3,5-dimethylisoxazol-4-yl)-6-fluoro-2-methyl-1,4-dihydro-4-oxoquinoline], `Cc1noc(C)c1-c1ccc2c(=O)cc(C)n(Cc3cc(F)cc(F)c3N)c2c1` [Example 14, 1-(2-amino-3,5-difluorobenzyl)-7-(3,5-dimethylisoxazol-4-yl)-2-methyl-1,4-dihydro-4-oxoquinoline] is 0.72 log units higher in pIC50: 8.54 for the first, 9.26 for the second.

Going from `Cc1noc(C)c1-c1ccc2c(=O)cc(C)n(-c3cc(N)c(S(C)(=O)=O)cc3F)c2n1` [Example 33, 1-(5-amino-2-fluoro-4-(methylsulfonyl)phenyl)-7-(3,5-dimethylisoxazol-4-yl)-2-methyl-1,4-dihydro-4-oxo-1,8-naphthyridine] to `Cc1noc(C)c1-c1ccc2c(=O)cc(C)n(Cc3ccc(Cl)c(F)c3N)c2c1` [Example 35, 1-(2-amino-4-chloro-3-fluorobenzyl)-7-(3,5-dimethylisoxazol-4-yl)-2-methyl-1,4-dihydro-4-oxoquinoline], the pIC50 falls from 9.06 to 8.59 (0.47 log units).

test system: not listed separately; experiment: Pharmacokinetic study in mice (oral administration); type: in vivo; conditions: mouse, serum, 25 mg/kg, male ICR mice, suspension in 0.5% methylcellulose 2.5 mg/mL at 10 mL/kg, 12 hours after administration, HPLC, read-out: serum concentration of the test compound
Protocol: The compounds of Examples 2, 4, 5, 12 and 16 were used as test compounds.
A test compound suspended in 0.5% methylcellulose (2.5 mg/mL) was orally administered at 10 mL/kg to male ICR mice (6 week-old, three animals in a group). At 12 hours after the administration, the blood of the mice was collected, and the concentrations of the test compound in the serum were measured by HPLC.

`Cc1noc(C)c1-c1ccc2c(=O)cc(C)n(Cc3ccccc3N)c2c1` [Example 5, 1-(2-aminobenzyl)-7-(3,5-dimethylisoxazol-4-yl)-2-methyl-1,4-dihydro-4-oxoquinoline] and `CCc1cc(=O)c2ccc(-c3c(C)noc3C)cc2n1-c1cc(N)c(F)cc1F` [Example 16, 1-(5-amino-2,4-difluorophenyl)-7-(3,5-dimethylisoxazol-4-yl)-2-ethyl-1,4-dihydro-4-oxoquinoline] cannot be ordered by concentration at 12 h: at least 500 ng/mL for the first, at least 500 ng/mL for the second.
